Experiments:
[1] = tested on: LPS-stimulated TNFα production in THP-1 cells; experiment: LPS-stimulated TNFα production inhibition test using human acute monocytic leukemia cell strain THP-1; format: cell-based; conditions: LPS 2.5 ng/mL, average values
Procedure: By the THP-1 assay, influence of a test compound on the TNFα production induced by LPS stimulation can be evaluated. The THP-1 cells (ATCC, Cat. TIB-202) were inoculated on a 96-well plate at a density of 1×10^5 cells/160 μL/well, a test compound was added in a volume of 20 μL, and the plate was incubated at 37° C. for 1 hour in a 5% CO2 incubator. Then, LPS in a volume of 20 μL (final concentration 2.5 ng/mL, Sigma, Cat. L2630) was added, and the plate was further incubated for 4 hours. After the incubation, the plate was centrifuged, and 100 μL of the supernatant was taken from each well, and used for evaluation of the amount of TNFα using HTRF (Cisbio, Cat. 62TNFPEB). In the measurement of the amount of TNFα, the supernatant was diluted twice with the medium, and then added to wells of a 384-well plate in a volume of 10 μL, then anti-TNFα-cryptate (5 μL), and anti-TNFα-XL665 (5 μL) were added, and the plate was left standing overnight. The fluorescence intensity ratio for the wavelengths of 620 and 665 nm (620 nm/665 nm) was measured with a microplate reader, and the amount of TNFα in the supernatant was calculated by using a calibration curve. The TNFα production suppression ratio observed with no addition of LPS was defined to be 100%, the TNFα production suppression ratio observed with no addition of the test compound was defined to be 0%, and IC50 of the test compound was calculated by using the 4-parameter logistic model of the data analysis software XLfit (ID Business Solutions Ltd.).

human IRAK-4 = human IRAK-4 (Homo sapiens (Human), UniProt Q9NWZ3); experiment: Measurement of human IRAK-4 inhibitory activity (TR-FRET, peptide substrate phosphorylation, 10 μM ATP); format: biochemical; conditions: 1 nM IRAK-4, 10 μM ATP, 23° C., 30 minutes; average values
Procedure: For the measurement of the activity of the human IRAK-4 (Invitrogen, Cat. PV3362), phosphorylation of the IRAK-4 peptide substrate (biotin-KKKKRFSFKKSFKC) by the enzyme in the presence of 10 μM ATP (Sigma-Aldrich, Cat. A7699) was measured by the TR-FRET method. The enzymatic reaction was performed in a reaction buffer containing 50 mM HEPES (pH 7.2), 1 mM DTT, 0.1 mM Na3VO4, 5 mM MgCl2, 1 mM MnCl2, and 0.1% bovine serum albumin. For the measurement of the IRAK-4 inhibitory activity, a test compound was added to the reaction buffer containing 1 nM IRAK-4, 0.5 μM peptide substrate, and 10 μM ATP, and the mixture was incubated at 23° C. for 30 minutes. Then, a detection solution containing an antibody labeled with europium cryptate (0.3 μg/mL, the antibody was prepared by using the IRAK-4 peptide substrate as the antigen), streptavidin-XL665 (2 μg/mL, CisBio, Cat. 610SAXLB), 50 mM HEPES (pH 7.2), 0.1% BSA, 120 mM KF, and 66.7 mM EDTA (all the concentrations of the reagents are final concentrations) was added to terminate the reaction, and then the mixture was further incubated at 23° C. for 60 minutes. Fluorescence intensity was measured at wavelengths of 665 nm and 620 nm with a microplate reader, and the enzymatic activity was calculated as the ratio of fluorescence intensities at 665 nm and 620 nm (665 nm/620 nm).

Sequence of human IRAK-4 (Q9NWZ3 whole entry): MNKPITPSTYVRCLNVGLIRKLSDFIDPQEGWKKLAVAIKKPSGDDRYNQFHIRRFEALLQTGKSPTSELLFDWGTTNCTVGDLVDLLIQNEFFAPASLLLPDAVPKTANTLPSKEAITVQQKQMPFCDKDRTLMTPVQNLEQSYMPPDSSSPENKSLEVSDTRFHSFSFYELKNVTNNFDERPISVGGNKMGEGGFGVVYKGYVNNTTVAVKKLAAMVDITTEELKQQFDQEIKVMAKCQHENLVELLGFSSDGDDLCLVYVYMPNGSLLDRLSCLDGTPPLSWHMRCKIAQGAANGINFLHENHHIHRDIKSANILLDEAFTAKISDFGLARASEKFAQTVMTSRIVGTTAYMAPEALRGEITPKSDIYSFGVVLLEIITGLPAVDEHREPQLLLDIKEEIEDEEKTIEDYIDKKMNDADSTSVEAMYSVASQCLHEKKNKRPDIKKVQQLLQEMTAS

Compound	IC50 ([1]; Homo sapiens, THP-1, 4 h) [nM]	IC50 (human IRAK-4) [nM]	IC50 ([1]; 4 hours) [nM]	IC50 ([1]; Homo sapiens, 4 hours) [nM]
O=C(Nc1nc2ccc(-c3cnc(CO[C@H]4CCC[C@@H]4O)nc3)c(Cl)c2s1)C1CC1 [a-01-11]	437	7.89	–	–
O=C(Nc1nc2ccc(-c3cnc(CO[C@H]4CCC[C@@H]4O)nc3)c(F)c2s1)C1CC1 [a-01-12]	361	7.75	–	–
CCCOCc1ncc(-c2ccc3nc(NC(=O)C4CC4)sc3c2)cn1 [a-02-01, N-(6-(2-(Propoxymethyl)pyrimidin-5-yl)benzo[d]thiazol-2-yl)cyclopropanecarboxamide]	330	16.1	–	–
O=C(Nc1nc2ccc(-c3cnc(COC4CCCC4)nc3)cc2s1)C1CC1 [a-04-01, N-(6-(2-(Cyclopentoxymethyl)pyrimidin-5-yl)-1,3-benzo[d]thiazol-2-yl)cyclopropanecarboxamide]	261	1.38	–	–
O=C(Nc1nc2ccc(-c3cnc(COC4CCC4)nc3)cc2s1)C1CC1 [a-04-03]	355	2.32	–	–
O=C(Nc1nc2ccc(-c3cnc(COC4CC(F)(F)C4)nc3)cc2s1)C1CC1 [a-04-04]	444	2.32	–	–
O=C(Nc1nc2ccc(-c3cnc(COC[C@@H]4CCCO4)nc3)cc2s1)C1CC1 [a-05-01]	304	7.81	–	–
O=C(Nc1nc2ccc(-c3cnc(CO[C@H]4CCC[C@@H]4O)nc3)cc2s1)C1CC(N2CCOCC2)C1 (stereo partly drawn) [b-01-01, N-(6-(2-((((1S,2S)-2-Hydroxycyclopentyl)oxy)methyl)pyrimidin-5-yl)benzo[d]thiazol-2-yl)-3-moipholinocyclobutane-1-carboxamide]	154	3.39	–	–
O=C(Nc1nc2ccc(-c3cnc(CO[C@H]4CCC[C@@H]4O)nc3)cc2s1)C1CC(N2CC(F)C2)C1 (some centres unmarked) [b-01-02]	–	3.33	177	–
O=C(Nc1nc2ccc(-c3cnc(CO[C@H]4CCC[C@@H]4O)nc3)cc2s1)C1CC(N2CC[C@@H](F)C2)C1 (some centres unmarked) [b-02-01]	195	3.16	–	–
O=C(Nc1nc2ccc(-c3cnc(CO[C@H]4CCC[C@@H]4O)nc3)cc2s1)C1CC(N2CC[C@H](F)C2)C1 (some centres unmarked) [b-02-02]	195	2.79	–	–
O=C(Nc1nc2ccc(-c3cnc(CO[C@H]4CCC[C@@H]4O)nc3)cc2s1)C1CC(N2CCCOCC2)C1 (some centres unmarked) [b-02-03]	166	2.53	–	–
O=C(Nc1nc2ccc(-c3cnc(CO[C@H]4CCC[C@@H]4O)nc3)cc2s1)C1CC(N2CCC(F)(F)CC2)C1 (some centres unmarked) [b-02-04]	146	3.64	–	–
C[C@@H]1CN(C2CC(C(=O)Nc3nc4ccc(-c5cnc(CO[C@H]6CCC[C@@H]6O)nc5)cc4s3)C2)CCO1 (some centres unmarked) [b-02-08]	113	2.76	–	–
O=C(Nc1nc2ccc(-c3cnc(CO[C@H]4CCC[C@@H]4O)nc3)cc2s1)C1CC(N2CC3CC(C2)O3)C1 (some centres unmarked) [b-02-09]	–	2.42	–	142
O=C(Nc1nc2ccc(-c3cnc(CO[C@H]4CCC[C@@H]4O)nc3)cc2s1)C1CC(N2CCCC(F)(F)C2)C1 (some centres unmarked) [b-02-10]	141	3.94	–	–
O=C(Nc1nc2ccc(-c3cnc(CO[C@H]4CCC[C@@H]4O)nc3)cc2s1)C1CC(N2CCC(F)CC2)C1 (some centres unmarked) [b-02-11]	152	2.87	–	–
O=C(Nc1nc2ccc(-c3cnc(CO[C@H]4CCC[C@@H]4O)nc3)cc2s1)C1CC(N2CC(F)(F)C2)C1 (some centres unmarked) [b-02-12]	170	3.37	–	–
O=C(Nc1nc2ccc(-c3cnc(CO[C@H]4CCC[C@@H]4O)nc3)cc2s1)C1CC(N2CCC(F)(F)C2)C1 (some centres unmarked) [b-02-13]	175	3.77	–	–
CO[C@H]1CCN(C2CC(C(=O)Nc3nc4ccc(-c5cnc(CO[C@H]6CCC[C@@H]6O)nc5)cc4s3)C2)C1 (some centres unmarked) [b-02-14]	164	2.41	–	–
CC1(C)CN(C2CC(C(=O)Nc3nc4ccc(-c5cnc(CO[C@H]6CCC[C@@H]6O)nc5)cc4s3)C2)CCO1 (some centres unmarked) [b-02-18]	164	2.92	–	–
C[C@@H]1CN(C2CC(C(=O)Nc3nc4ccc(-c5cnc(CO[C@H]6CCC[C@@H]6O)nc5)cc4s3)C2)C[C@H](C)O1 (some centres unmarked) [b-02-19]	144	2.54	–	–
CC[C@H]1COCCN1C1CC(C(=O)Nc2nc3ccc(-c4cnc(CO[C@H]5CCC[C@@H]5O)nc4)cc3s2)C1 (some centres unmarked) [b-02-20]	78	4.28	–	–
O=C(Nc1nc2ccc(-c3cnc(CO[C@H]4CCC[C@@H]4O)nc3)cc2s1)C1CC(N2CCN(CC(F)(F)F)CC2)C1 (some centres unmarked) [b-02-23]	166	2.52	–	–
O=C(Nc1nc2ccc(-c3cnc(CO[C@H]4CCC[C@@H]4O)nc3)cc2s1)C1CC(NC23CC(C2)C3)C1 (some centres unmarked) [b-02-29]	124	2.43	–	–
O=C(Nc1nc2ccc(-c3cnc(CO[C@H]4CCC[C@@H]4O)nc3)cc2s1)C1CC(N2CCOC(C3CC3)C2)C1 (some centres unmarked) [b-02-30]	137	4.12	–	–

More lines, in order of falling IC50 (human IRAK-4), values ahead:

IC50 ([1]; Homo sapiens, THP-1, 4 h) [nM]	IC50 (human IRAK-4) [nM]	IC50 ([1]; 4 hours) [nM]	Compound	IC50 ([1]; Homo sapiens, 4 hours) [nM]
164	2.28	–	C[C@H]1CN(C2CC(C(=O)Nc3nc4ccc(-c5cnc(CO[C@H]6CCC[C@@H]6O)nc5)cc4s3)C2)CCO1 (some centres unmarked) [b-02-07]	–
157	2.25	–	CO[C@@H]1CCN(C2CC(C(=O)Nc3nc4ccc(-c5cnc(CO[C@H]6CCC[C@@H]6O)nc5)cc4s3)C2)C1 (some centres unmarked) [b-02-15]	–
103	2.17	–	O=C(Nc1nc2ccc(-c3cnc(CO[C@H]4CCC[C@@H]4O)nc3)cc2s1)C1CC(N2CCN(C3CC3)CC2)C1 (some centres unmarked) [b-02-28]	–
131	2.12	–	C[C@@H]1COCCN1C1CC(C(=O)Nc2nc3ccc(-c4cnc(CO[C@H]5CCC[C@@H]5O)nc4)cc3s2)C1 (some centres unmarked) [b-02-05]	–
66	2.12	–	CC[C@@H]1COCCN1C1CC(C(=O)Nc2nc3ccc(-c4cnc(CO[C@H]5CCC[C@@H]5O)nc4)cc3s2)C1 (some centres unmarked) [b-02-21]	–
107	2.01	–	O=C(Nc1nc2ccc(-c3cnc(CO[C@H]4CCC[C@@H]4O)nc3)cc2s1)C1CC(N2CCC[C@@H](F)C2)C1 (some centres unmarked) [b-02-16]	–
199	1.98	–	COCCN1CCN(C2CC(C(=O)Nc3nc4ccc(-c5cnc(CO[C@H]6CCC[C@@H]6O)nc5)cc4s3)C2)CC1 (some centres unmarked) [b-02-25]	–
180	1.91	–	O=C(Nc1nc2ccc(-c3cnc(CO[C@H]4CCC[C@@H]4O)nc3)cc2s1)C1CC(N2CCOCC3(CC3)C2)C1 (some centres unmarked) [b-02-24]	–
208	1.89	–	CN1CCN(C2CC(C(=O)Nc3nc4ccc(-c5cnc(CO[C@H]6CCC[C@@H]6O)nc5)cc4s3)C2)CC1 (some centres unmarked) [b-02-22]	–
126	1.75	–	C[C@H]1CCCN1C1CC(C(=O)Nc2nc3ccc(-c4cnc(CO[C@H]5CCC[C@@H]5O)nc4)cc3s2)C1 (some centres unmarked) [b-02-26]	–
120	1.59	–	O=C(Nc1nc2ccc(-c3cnc(CO[C@H]4CCC[C@@H]4O)nc3)cc2s1)C1CC(N2CCC[C@H](F)C2)C1 (some centres unmarked) [b-02-17]	–
159	1.48	–	C[C@@H]1CCCN1C1CC(C(=O)Nc2nc3ccc(-c4cnc(CO[C@H]5CCC[C@@H]5O)nc4)cc3s2)C1 (some centres unmarked) [b-02-27]	–
57	1.41	–	O=C(Nc1nc2ccc(-c3cnc(CO[C@H]4CC(F)(F)C[C@@H]4O)nc3)cc2s1)C1CC1 [a-03-01, N-(6-(2-((((1 S,2S)-4,4-Difluoro-2-hydroxycyclopentyl)oxy)methyl)pyrimidin-5-yl)benzo[d]thiazol-2-yl)cyclopropanecarboxamide]	–
66	1.34	–	C[C@H]1COCCN1C1CC(C(=O)Nc2nc3ccc(-c4cnc(CO[C@H]5CCC[C@@H]5O)nc4)cc3s2)C1 (some centres unmarked) [b-02-06]	–

Reference: patent US20240025893A1, “PYRIMIDINE-AND NITROGEN-CONTAINING BICYCLIC COMPOUND” (Asahi Kasei Pharma Corporation, priority 2020, published 2024)
